Assay results taken from PMC8311653, “Design, Synthesis, In Vitro and In Vivo Characterization of Selective NKCC1 Inhibitors for the Treatment of Core Symptoms in Down Syndrome” (Journal of Medicinal Chemistry, 2021).
Converted amounts (≈) assume the structure as drawn. “Also recorded” adds a separate entry of the source.

Key:
[1] = Aqueous kinetic solubility in PBS pH 7.4; type: physicochemical; details: phosphate buffered saline (PBS); aqueous kinetic solubility from 10 mM DMSO solution in PBS pH 7.4; target concentration 250 μM (final DMSO 2.5%)
Method: 1. Aqueous kinetic solubility.
30 µL aliquots of 10 mM DMSO stock solution of the test compound were incubated in Phosphate
Buffered Saline (PBS) at pH 7.4 at 25°C for 24h. After centrifugation the dissolved compound in the
supernatant was quantified by LC-MS/MS.
Aqueous kinetic solubility was determined by UV quantification at
215 nm. […]

[2] = target: T1, NKCC1 (Homo sapiens, UniProt P55011); assay: Cl- influx assay in NKCC1-transfected HEK293 cells; type: cell-based; details: for inhibition at 10 µM: HEK293, read-out: Inhibition 10 μM Cl- influx (%); for inhibition at 100 µM: HEK293, read-out: Inhibition 100 μM Cl- influx (%); for Inhibition 10 μM Cl- influx (%) / Inhibition 100 μM Cl- influx (%): NKCC1-transfected HEK293 cells
T1 construct: host or cells: HEK293
T1 sequence (P55011 1-1212): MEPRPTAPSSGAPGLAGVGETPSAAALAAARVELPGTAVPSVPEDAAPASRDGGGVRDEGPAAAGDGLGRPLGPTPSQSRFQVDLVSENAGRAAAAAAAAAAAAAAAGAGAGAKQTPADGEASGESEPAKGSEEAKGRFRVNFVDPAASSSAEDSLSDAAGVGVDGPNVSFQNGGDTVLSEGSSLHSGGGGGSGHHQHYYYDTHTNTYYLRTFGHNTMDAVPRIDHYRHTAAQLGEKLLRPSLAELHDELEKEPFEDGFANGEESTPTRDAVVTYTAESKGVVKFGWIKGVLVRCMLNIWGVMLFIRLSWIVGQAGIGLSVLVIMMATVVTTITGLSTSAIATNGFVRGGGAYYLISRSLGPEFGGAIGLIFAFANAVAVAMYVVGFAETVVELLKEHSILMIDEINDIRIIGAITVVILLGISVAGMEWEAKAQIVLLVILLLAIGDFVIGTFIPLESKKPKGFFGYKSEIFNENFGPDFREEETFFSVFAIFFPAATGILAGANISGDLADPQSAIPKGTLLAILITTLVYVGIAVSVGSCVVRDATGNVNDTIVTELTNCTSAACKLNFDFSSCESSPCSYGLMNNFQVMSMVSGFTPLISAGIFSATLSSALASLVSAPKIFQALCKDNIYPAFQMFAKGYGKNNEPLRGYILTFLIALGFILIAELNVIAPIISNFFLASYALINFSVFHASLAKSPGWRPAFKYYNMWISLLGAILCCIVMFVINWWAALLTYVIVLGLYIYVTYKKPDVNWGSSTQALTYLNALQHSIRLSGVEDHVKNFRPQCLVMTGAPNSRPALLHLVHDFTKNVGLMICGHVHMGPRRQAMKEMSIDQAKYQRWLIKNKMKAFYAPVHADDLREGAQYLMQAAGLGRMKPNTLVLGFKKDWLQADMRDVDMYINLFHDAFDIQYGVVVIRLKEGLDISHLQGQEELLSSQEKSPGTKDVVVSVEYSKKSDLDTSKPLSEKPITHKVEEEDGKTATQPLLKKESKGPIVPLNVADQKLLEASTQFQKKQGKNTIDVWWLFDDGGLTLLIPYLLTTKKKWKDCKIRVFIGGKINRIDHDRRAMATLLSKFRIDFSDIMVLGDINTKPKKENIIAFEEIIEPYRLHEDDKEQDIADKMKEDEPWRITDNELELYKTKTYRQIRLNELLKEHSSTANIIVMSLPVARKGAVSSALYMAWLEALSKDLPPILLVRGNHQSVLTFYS
Method: HEK293 cells were cultured in Dulbecco’s modified Eagle’s medium (DMEM) supplemented with 10% fetal bovine serum, 1% L-glutamine, 100 U/mL penicillin, and 100 μg/mL streptomycin and maintained at 37 °C in a 5% CO2 humidified atmosphere. To assess NKCC1 and NKCC2 activity (Cl^– influx assay), 3 million HEK cells were plated in a 10 cm cell-culture dish and transfected with a transfection mixture comprising 5 mL of DMEM, 4 mL of Opti-MEM, 8 μg of DNA plasmid coding for NKCC1 (PRK-NKCC1 obtained from Medical Research Council and the University of Dundee), NKCC2 (OriGene plasmid #RC216145) subcloned in PRK5 plasmid, or mock control (empty vector), together with 8 μg of a plasmid coding for the Cl^–-sensitive variant of the membrane-targeted fluorescent protein YFP, mbYFPQS (Addgene plasmid #80742),[53] and 32 μL of Lipofectamin 2000. To assess KCC2 activity (Tl influx assay), cells were transfected with 8 μg of KCC2[54] subcloned in the PRK5 plasmid or mock control (empty vector) and 16 μL of Lipofectamin 2000. After 4 h, the cells were collected and plated in 96-well black-walled, clear-bottomed plates at a density of 2.5 × 10^4. After 48 h, cells were used for the Cl^– or Tl influx assays. All reagents were purchased from Life Technologies, unless otherwise specified.
Transfected cells were treated with 10 μM or 100 μM bumetanide (as positive controls), DMSO (as the negative control), or with each of our compounds in 100 μL/well of a Cl^–-free hypotonic solution (67.5 mM Na^+ gluconate, 2.5 mM K^+ gluconate, 15 mM HEPES pH 7.4, 50 mM glucose, 1 mM Na2HPO4, 1 mM NaH2PO4, 1 mM MgSO4, and 1 mM CaSO4). After 30 min of incubation, plates were loaded into a Victor 3V (PerkinElmer) multiplate reader equipped with an automatic liquid injector system, and fluorescence of Cl^–-sensitive mbYFPQS was recorded with excitation at 485 nm and emission at 535 nm. For each well, fluorescence was first recorded for 20 s of the baseline and for 60 s after delivery of a NaCl concentrated solution (74 mM final concentration in the assay well). Fluorescence of Cl^–-sensitive mbYFPQS is inversely correlated to the intracellular Cl^– concentration;[53] therefore, chloride influx into the cells determined a decrease in mbYFPQS fluorescence. To represent the fluorescent traces in time, we normalized the fluorescence value for each time point to the average of the fluorescence value of the first 20 s of the baseline (ΔF/F0). To quantify the average effects as represented by the bar plots, we expressed the decrease in fluorescence upon NaCl application as the average of the last 10 s of ΔF/F0 normalized traces. Moreover, for each experiment, to account for the contribution of Cl^– changes that were dependent on transporters/exchangers other than NKCC1 or NKCC2, we subtracted the value of the last 10 s of ΔF/F0 normalized traces obtained from mock-transfected cells (either control or treated) from the respective ΔF/F0 value obtained from the cells transfected with NKCC1 or NKCC2. We then presented in the figures all the data as a percentage of the fluorescence decrease versus the value of the control DMSO.

[3] = In vitro metabolic stability in mouse liver microsomes; details: tissue homogenate, pH 7.4
Method: 1. Aqueous kinetic solubility. […]
3. In vitro mouse microsomial stability. […]
microsomes (Sekisui Xenotech, LCC), 0.1M Tris-HCl buffer (pH 7.4), and 10% DMSO. The final […]
After pre-incubation, the cofactors (NADPH, G6P, G6PDH, MgCl2 pre-dissolved in 0.1M Tris-HCl) were added to the incubation mixture and the incubation was continued at 37 °C for 1h. At each time point (0, 5, 15, 30, 60 min), 30µL of incubation mixture was diluted with 200 µL cold acetonitile spiked with 200 nM of warfarin as internal standard, followed by centrifugation at 3500 g for 30 min. The supernatant was further diluted with H2O (1:1) for analysis.
An aliquot of 200 µl of the supernatant was removed, and the concentration of the test compound was […]
quantified by LC-MS/MS. The percentage of the test compound remaining at each time point relative […]
to t=0 was calculated. The half-lives (t½) were determined by a one-phase decay equation using a […]
non-linear regression of compound concentration vs time.

In the case of `CCCCCCNc1ccc([N+](=O)[O-])cc1S(=O)(=O)NC` [Compound 3, 2-(Hexylamino)-N-methyl-5-nitro-benzenesulfonamide], the solubility at 24 h [1] is reported as 1 µM (≈ 0.315 µg/mL), the inhibition at 10 µM [2] is reported as 6.4 ± 3.4% and the inhibition at 100 µM [2] is reported as 29.4 ± 2.8%. It also gave a half-life at 5 μM [3] of less than 5 min.
Work on `CNS(=O)(=O)c1cc([N+](=O)[O-])ccc1NCCC(C)(C)C` [Compound 4, 2-(3,3-Dimethylbutylamino)-N-methyl-5-nitro-benzenesulfonamide] yielded a solubility at 24 h [1] of 3 µM (≈ 0.946 µg/mL), an inhibition at 10 µM [2] of 17.7 ± 3.9% and an inhibition at 100 µM [2] of 28.7 ± 4.4%. The half-life at 5 μM [3] was 6 min.
For `CCCCNc1ccc([N+](=O)[O-])cc1S(N)(=O)=O` [Compound 5, 2-(Butylamino)-5-nitro-benzenesulfonamide], the solubility at 24 h [1] was 85 µM (≈ 23.2 µg/mL), the “Inhibition 10 μM Cl- influx (%)” value [2] was “Inactive” and the inhibition at 100 µM [2] was 4.7 ± 13.3%. It also gave a half-life at 5 μM [3] of 6 min.
For `CCCCCCNc1ccc([N+](=O)[O-])cc1S(N)(=O)=O` [Compound 6, 2-(Hexylamino)-5-nitro-benzenesulfonamide], the solubility at 24 h [1] was 6 µM (≈ 1.81 µg/mL), the “Inhibition 10 μM Cl- influx (%)” value [2] was “no inhibitory activity; also recorded: Inactive” and the inhibition at 100 µM [2] was 3.8 ± 5.6%. The half-life at 5 μM [3] was less than 5 min.
Compound `CCCCCCCCNc1ccc([N+](=O)[O-])cc1S(N)(=O)=O` [Compound 7, 5-Nitro-2-(octylamino)benzenesulfonamide] has a solubility at 24 h [1] of less than 1 µM, an inhibition at 10 µM [2] of 0.3 ± 2.9% and an inhibition at 100 µM [2] of 5.8 ± 6.8%. It also gave a half-life at 5 μM [3] of less than 5 min.
With `CC(C)(C)CCNc1ccc([N+](=O)[O-])cc1S(N)(=O)=O` [Compound 8, 2-(3,3-Dimethylbutylamino)-5-nitro-benzenesulfonamide] the “Inhibition 10 μM Cl- influx (%)” value [2] was “Inactive” and the inhibition at 100 µM [2] was 14.5 ± 10.6%.
With `CCCCNc1ccc([N+](=O)[O-])cc1S(=O)(=O)NC` [Compound 9, 2-(Butylamino)-N-methyl-5-nitro-benzenesulfonamide] the “Inhibition 10 μM Cl- influx (%)” value [2] was “Inactive” and the inhibition at 100 µM [2] was 13.3 ± 11.4%.
In the case of `CCCCCCCCNc1ccc([N+](=O)[O-])cc1S(=O)(=O)NC` [Compound 10, N-Methyl-5-nitro-2-(octylamino)benzenesulfonamide], the “Inhibition 10 μM Cl- influx (%)” value [2] is reported as “Inactive” and the “Inhibition 100 μM Cl- influx (%)” value [2] is reported as “Inactive”.
In the case of `CCCCNc1ccc([N+](=O)[O-])cc1S(=O)(=O)N(C)C` [Compound 11, 2-(Butylamino)-N,N-dimethyl-5-nitro-benzenesulfonamide], the “Inhibition 10 μM Cl- influx (%)” value [2] is reported as “Inactive” and the inhibition at 100 µM [2] is reported as 15.2 ± 9.6%.
For `CCCCCCNc1ccc([N+](=O)[O-])cc1S(=O)(=O)N(C)C` [Compound 12, 2-(Hexylamino)-N,N-dimethyl-5-nitro-benzenesulfonamide], the solubility at 24 h [1] was 1 µM (≈ 0.329 µg/mL), the “Inhibition 10 μM Cl- influx (%)” value [2] was “Inactive” and the inhibition at 100 µM [2] was 4.9 ± 6.8%. For the same compound, the half-life at 5 μM [3] was less than 5 min.
For `CCCCCCCCNc1ccc([N+](=O)[O-])cc1S(=O)(=O)N(C)C` [Compound 13, N,N-Dimethyl-5-nitro-2-(octylamino)benzenesulfonamide], the “Inhibition 10 μM Cl- influx (%)” value [2] was “Inactive” and the “Inhibition 100 μM Cl- influx (%)” value [2] was “Inactive”.
`CN(C)S(=O)(=O)c1cc([N+](=O)[O-])ccc1NCCC(C)(C)C` [Compound 14, 2-(3,3-Dimethylbutylamino)-N,N-dimethyl-5-nitro-benzenesulfonamide] gave an inhibition at 10 µM [2] of 10 ± 4.9% and an inhibition at 100 µM [2] of 17 ± 11.9%.
For `CCCCNc1ccc(C(=O)O)cc1S(N)(=O)=O` [Compound 15, 4-(Butylamino)-3-sulfamoyl-benzoic Acid], the “Inhibition 10 μM Cl- influx (%)” value [2] was “Inactive” and the inhibition at 100 µM [2] was 6.4 ± 5.3%.
In the case of `CCCCCCNc1ccc(C(=O)O)cc1S(N)(=O)=O` [Compound 16, 4-(Hexylamino)-3-sulfamoyl-benzoic Acid], the solubility at 24 h [1] is reported as 238 µM (≈ 71.5 µg/mL), the “Inhibition 10 μM Cl- influx (%)” value [2] is reported as “Inactive” and the inhibition at 100 µM [2] is reported as 4.9 ± 3.7%. It also gave a half-life at 5 μM [3] greater than 60 min.
For `CC(C)(C)CCNc1ccc(C(=O)O)cc1S(N)(=O)=O` [Compound 18, 4-(3,3-Dimethylbutylamino)-3-sulfamoyl-benzoic Acid], the “Inhibition 10 μM Cl- influx (%)” value [2] was “Inactive” and the inhibition at 100 µM [2] was 5.1 ± 4.9%.
Compound `CCCCNc1ccc(C(=O)O)cc1S(=O)(=O)NC` [Compound 19, 4-(Butylamino)-3-(-N-methylsulfamoyl)benzoic Acid] has an inhibition at 10 µM [2] of 6.4 ± 2.1% and an inhibition at 100 µM [2] of 6.2 ± 5.7%.
For `CNS(=O)(=O)c1cc(C(=O)O)ccc1NCCC(C)(C)C` [Compound 22, 4-(-N-3,3-Dimethylbutylamino)-3-(methylsulfamoyl)benzoic Acid], the “Inhibition 10 μM Cl- influx (%)” value [2] was “Inactive” and the inhibition at 100 µM [2] was 2.6 ± 3.5%.
Compound `CCCCNc1ccc(C(=O)O)cc1S(=O)(=O)N(C)C` [Compound 23, 4-(Butylamino)-3-(-N,N-dimethylsulfamoyl)benzoic Acid] has an inhibition at 10 µM [2] of 2.6 ± 2.8% and an inhibition at 100 µM [2] of 15.6 ± 5.4%.
For `COCCCCCCNc1ccc(C(=O)O)cc1S(=O)(=O)N(C)C` [Compound 31, 3-(-N,N-Dimethylsulfamoyl)-4-(6-methoxyhexylamino)benzoic Acid], the solubility at 24 h [1] was greater than 250 µM, the “Inhibition 10 μM Cl- influx (%)” value [2] was “did not show any NKCC1 inhibition; also recorded: Inactive” and the “Inhibition 100 μM Cl- influx (%)” value [2] was “did not show any NKCC1 inhibition; also recorded: Inactive”.
